What was measured:
[1] = test system: hApoE2 Knock-in transgenic mice; experiment: Effects on triglycerides and cholesterol metabolism in vivo; design: species or system mouse
Summary of the method: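 hApoE2 knock-in mice (n=6/group, matched for body weight and plasma lipids) dosed once daily by intragastric gavage in carboxymethylcellulose for 7 or 8 days at indicated doses. Terminal blood on EDTA; total cholesterol and triglycerides measured colorimetrically.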

[2] = test system: Human normal primary fibroblasts; experiment: Antioxidant properties on cell cultures (carboxy-H2DCFDA fluorescence, AAPH stress), fibroblasts; assay type: cell-based; details: 25 μM for 24 h, AAPH 750 μM
Summary of the method: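 Cells were pretreated 24 h with compound at 25 μM, loaded 30 min at 37 °C with 25 μM carboxy-H2DCFDA, then stressed 30 min with 750 μM AAPH in phenol-red- and serum-free medium. ROS read as fluorescence ([…]); activity expressed as reduction in fluorescence signal.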

PPARδ = target: T1, PPARδ (Mus musculus, UniProt P35396); experiment: In vivo evaluation of PPARδ properties (target gene expression, RT-PCR); details: PPARα knock-out mouse; 150 mg/kg/day for 3 days
T1 construct: from tissue; host or cells: heart and skeletal muscle (quadriceps) of PPARα knock-out mice
T1 sequence (P35396 1-440): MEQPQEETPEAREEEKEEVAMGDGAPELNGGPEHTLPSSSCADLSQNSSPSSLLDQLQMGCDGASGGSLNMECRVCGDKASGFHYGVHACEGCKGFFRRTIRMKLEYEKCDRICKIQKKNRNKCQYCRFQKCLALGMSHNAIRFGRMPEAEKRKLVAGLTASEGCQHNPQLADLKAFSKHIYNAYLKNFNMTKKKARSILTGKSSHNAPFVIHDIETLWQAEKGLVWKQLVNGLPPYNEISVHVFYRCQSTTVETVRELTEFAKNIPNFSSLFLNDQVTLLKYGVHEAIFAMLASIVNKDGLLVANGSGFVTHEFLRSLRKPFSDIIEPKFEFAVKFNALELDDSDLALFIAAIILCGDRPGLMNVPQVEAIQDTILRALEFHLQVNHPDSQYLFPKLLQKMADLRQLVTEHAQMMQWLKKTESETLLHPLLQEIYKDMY
Experimental: The PPARα knock-out mouse model was used to characterize in vivo PPARδ activation. Animals were treated for 3 days at the dose of 150 mg/kg/day. Total RNA was isolated from heart and skeletal muscle (quadriceps). Messenger RNAs were quantified by quantitative RT-PCR and expression levels were normalized using 18S gene as reference.
The […] knock-out mouse model was used to characterize in vivo PPARδ activation. Animals were treated for 3 days at the dose of 150 mg/kg/day. Total RNA was isolated from heart and skeletal muscle (quadriceps). Messenger RNAs were quantified by quantitative RT-PCR: total RNA was extracted from fragments of skeletal muscle or heart, using the RNeasy® Fibrous Tissue kit (Qiagen), according to the manufacturer's instructions. Reverse transcription was performed on 1 μg of total RNA (quantified using the Ribogreen RNA quantification kit (Molecular Probes)) by action of 1 μl of MMLV-RT enzyme (Sigma) during 1 hour at 37° C. in a total volume of 20 μl. The reaction conditions were 1× buffer (Sigma), 1.5 mM DTT, 0.18 mM dNTPs (Promega), 200 ng pdN6 (Amersham), 30 U RNase inhibitor (Sigma). Quantitative PCR was then carried out using the MyiQ Single-Color Real-Time PCR Detection System (Biorad). Briefly PCR reactions were performed in 96 well plates on 5 μl of diluted reverse transcription mix using the iQ SYBR Green Supermix kit. The reaction conditions were: 25 μl of volume reaction, 3 mM of MgCl2, and 0.5 μl of each reverse and forward primer solutions (10 pMol), Tm of 55° C. The primers pairs are specific for each target genes. […]
The quantity of fluorescence emitted is directly proportional to the quantity of complementary DNA present at the start of the reaction and amplified during the PCR. The relative levels of expression were determined using the standard curve for each transcript. […] The induction factor, i.e. the ratio between the relative signal induced by the compound according to the invention and the average of the values relating to the control group, was then calculated for each sample. […]

[3] = 200, 50, 12.5 and 3.125 mg/kg/day for 8 days

PDK4 expression in the heart (PPARδ)	UCP2 expression in the skeletal muscle (PPARδ)	UCP3 expression in the heart (PPARδ)	SMILES	plasma cholesterol ([1]; 50 mg/kg/day for 7 or 8 days, FIGS. 4-13, 4-15, 4-17, 4-19)	plasma triglycerides ([1]; 50 mg/kg/day for 7 or 8 days, FIGS. 4-14, 4-16, 4-18, 4-20)	cholesterol in lipoparticle subfraction (exclusion chromatography) [1, 3]	plasma cholesterol level [1, 3]	plasma triglycerides level [1, 3]	triglycerides in lipoparticle subfraction (exclusion chromatography) [1, 3]	antioxidant properties on cell cultures (in words) [2]	cholesterol in lipoparticle subfraction (exclusion chromatography) ([1]; 50 mg/kg/day for 8 days)	plasma cholesterol ([1]; 50 mg/kg/day for 8 days)	plasma triglycerides ([1]; 50 mg/kg/day for 8 days)	triglycerides in lipoparticle subfraction (exclusion chromatography) ([1]; 50 mg/kg/day for 8 days)
			CSc1ccc(C(=O)/C=C/c2cc(C)c(OC(C)(C)C(=O)O)c(C)c2)cc1 [Compound 29, 1-[4-methylthiophenyl]-3-[3,5-dimethyl-4-carboxydimethylmethyloxyphenyl]prop-2-en-1-one]	decrease	decrease	decrease	dose-dependent decrease	dose-dependent decrease	decrease	antioxidant properties				
Induction	Induction	Induction	Cc1cc(/C=C/C(=O)c2ccc(Br)cc2)cc(C)c1OC(C)(C)C(=O)O [Compound 41, 1-[4-bromophenyl]-3-[3,5-dimethyl-4-carboxydimethylmethyloxyphenyl]prop-2-en-1-one]							antioxidant properties	decrease	decrease	decrease	decrease
